Where a name gives a salt, the structure may show the parent alone.
Biological target: T1, Human PDE10A enzyme (Homo sapiens, UniProt Q9Y233)
T1 construct: transfected with the full-length gene; His-tag; made in house; host or cells: Sf9 or COS-7 cells
Test: PDE enzyme inhibition, SPA (Scintillation Proximity Assay) with [3H]cGMP
Format: biochemical
Details: [3H]cGMP substrate; for inhibition at 1 µM: compound 1 μM, read-out: Percent inhibition (1 μM); for inhibition at 10 µM: compound 10 μM, read-out: Percent inhibition (10 μM); for inhibition at 0.1 µM: compound 0.1 μM, read-out: Percent inhibition (0.1 μM)
Description: Human PDE10A enzyme was generated from Sf9 or COS-7 cells transfected with the full-length gene. Cloned enzyme was extracted from homogenized cell pellets. The extracted enzyme from sf9 cells was partially purified using His-tag affinity column. The enzyme was stored at −70° C. until use. PDE activity was measured using a SPA (Scintillation Proximity Assay) (GE Healthcare). To evaluate the inhibitory activity, 10 μL of serial diluted compounds were incubated with 20 μL of PDE enzyme in assay buffer (50 mM HEPES-NaOH, 8.3 mM MgCl2, 1.7 mM EGTA, 0.1% BSA (pH 7.4)) for 30 min. at room temperature. Final concentration of DMSO in the assay was 1 percent as compounds were tested in duplicate in 96-well half-area plates (Corning). To start the reaction, 10 μL of substrate [^3H] cGMP (25 or 50 nM; enclosed in SPA kits from GE Healthcare or purchased from PerkinElmer, respectively) was added for a final assay volume of 40 μL. After 60 min incubation at room temperature, yttrium SPA beads containing Zinc sulphate were added (20 μL at 6 mg/mL) to terminate the PDE reaction. After being settled for 60 min, assay plates were counted in a scintillation counter (PerkinElmer) to allow calculation of inhibition rate. Inhibition rate was calculated on the basis of 0% control wells with DMSO and 100% control wells without enzyme.

T1 sequence (Q9Y233 267-1055): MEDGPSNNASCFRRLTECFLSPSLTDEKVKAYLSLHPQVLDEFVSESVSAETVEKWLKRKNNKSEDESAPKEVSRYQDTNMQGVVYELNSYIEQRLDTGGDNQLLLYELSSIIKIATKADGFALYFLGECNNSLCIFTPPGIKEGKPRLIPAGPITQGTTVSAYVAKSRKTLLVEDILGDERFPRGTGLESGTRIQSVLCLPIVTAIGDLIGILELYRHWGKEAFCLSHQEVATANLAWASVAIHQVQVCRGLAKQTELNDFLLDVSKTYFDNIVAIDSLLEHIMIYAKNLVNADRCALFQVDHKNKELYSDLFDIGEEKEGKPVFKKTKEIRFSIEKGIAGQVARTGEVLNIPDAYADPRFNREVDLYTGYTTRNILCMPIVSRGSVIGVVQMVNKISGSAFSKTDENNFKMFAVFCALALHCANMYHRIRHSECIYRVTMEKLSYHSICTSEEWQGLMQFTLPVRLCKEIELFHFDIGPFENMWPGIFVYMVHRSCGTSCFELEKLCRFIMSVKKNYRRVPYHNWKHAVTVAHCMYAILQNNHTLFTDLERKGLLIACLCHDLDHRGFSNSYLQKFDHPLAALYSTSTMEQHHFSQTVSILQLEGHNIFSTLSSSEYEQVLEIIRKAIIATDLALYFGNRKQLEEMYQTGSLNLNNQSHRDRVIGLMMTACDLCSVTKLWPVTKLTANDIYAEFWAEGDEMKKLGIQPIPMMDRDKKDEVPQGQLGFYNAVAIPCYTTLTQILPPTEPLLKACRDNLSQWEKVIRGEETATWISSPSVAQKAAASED

Structure (SMILES)	inhibition at 1 µM	inhibition at 10 µM	inhibition at 0.1 µM
O=c1[nH]c2cccnc2n1-c1ccc(Nc2nc3ccccc3o2)cc1 [Example 1, 3-[4-(1,3-benzoxazol-2-ylamino)phenyl]-1,3-dihydro-2H-imidazo[4,5-b]pyridin-2-one]	98%	100%	
O=c1[nH]c2cccnc2n1-c1ccc(N2CCn3c2nc2ccccc23)cc1 [Example 2, 3-[4-(2,3-dihydro-1H-imidazo[1,2-a]benzimidazol-1-yl)phenyl]-1,3-dihydro-2H-imidazo[4,5-b]pyridin-2-one]	104%	103%	
Cn1c(=O)n(-c2ccc(N3CCn4c3nc3ccccc34)cc2)c2ncccc21 [Example 3, 3-[4-(2,3-dihydro-1H-imidazo[1,2-a]benzimidazol-1-yl)phenyl]-1-methyl-1,3-dihydro-2H-imidazo[4,5-b]pyridin-2-one]			99%
CCn1c(=O)n(-c2ccc(Oc3nc4ccccc4[nH]3)cc2)c2ncccc21 [Example 8, 3-[4-(1H-benzimidazol-2-yloxy)phenyl]-1-ethyl-1,3-dihydro-2H-imidazo[4,5-b]pyridin-2-one hydrochloride]			98%
CC1(C)C(=O)N(c2ccc(Oc3nc4ccccc4[nH]3)cc2)c2ncccc21 [Example 9, 1-[4-(1H-benzimidazol-2-yloxy)phenyl]-3,3-dimethyl-1,3-dihydro-2H-pyrrolo[2,3-b]pyridin-2-one dihydrochloride]	99%	99%	
CCn1c(=O)n(-c2ccc(-n3ncc4cccnc43)cc2)c2ncccc21 [Example 12, 1-Ethyl-3-[4-(1H-pyrazolo[3,4-b]pyridin-1-yl)phenyl]-1,3-dihydro-2H-imidazo[4,5-b]pyridin-2-one]	93%	99%	
CCn1c(=O)n(-c2ccc3c(c2)CCN3c2nc3ccccc3[nH]2)c2ncccc21 [Example 13, 3-[1-(1H-benzimidazol-2-yl)-2,3-dihydro-1H-indol-5-yl]-1-ethyl-1,3-dihydro-2H-imidazo[4,5-b]pyridin-2-one]	100%	101%	
CCn1c(=O)n(-c2ccc(N3CCn4c3nc3ccccc34)cc2)c2ncccc21 [Example 24, 3-[4-(2,3-dihydro-1H-imidazo[1,2-a]benzimidazol-1-yl)phenyl]-1-ethyl-1,3-dihydro-2H-imidazo[4,5-b]pyridin-2-one]			98%
CCn1c(=O)n(-c2ccc(Nc3nc4ccc(F)cc4o3)cc2)c2ncccc21 [Example 27, 1-ethyl-3-{4-[(6-fluoro-1,3-benzoxazol-2-yl)amino]phenyl)-1,3-dihydro-2H-imidazo[4,5-b]pyridin-2-one]			102%
CCn1c(=O)n(-c2ccc(Oc3cn4ccccc4n3)cc2)c2ncccc21 [Example 31, 1-ethyl-3-[4-(imidazo[1,2-a]pyridin-2-yloxy)phenyl]-1,3-dihydro-2H-imidazo[4,5-b]pyridin-2-one]	99%	98%	
CCn1c(=O)n(-c2ccc(Oc3nc4ccccc4n3CCO)cc2)c2ncccc21 [Example 39, 1-ethyl-3-(4-{[1-(2-hydroxyethyl)-1H-benzimidazol-2-yl]oxy}phenyl)-1,3-dihydro-2H-imidazo[4,5-b]pyridin-2-one]	100%	101%	
CCn1c(=O)n(-c2ccc(Oc3nc4ccccc4n3CC(C)(C)O)cc2)c2ncccc21 [Example 40, 1-ethyl-3-(4-{[1-(2-hydroxy-2-methylpropyl)-1H-benzimidazol-2-yl]oxy}phenyl)-1,3-dihydro-2H-imidazo[4,5-b]pyridin-2-one]	99%	101%	
CCn1c(=O)n(-c2ccc3c(c2)CCN3c2nc3ccccc3n2C)c2ncccc21 [Example 48, 1-ethyl-3-[1-(1-methyl-1H-benzimidazol-2-yl)-2,3-dihydro-1H-indol-5-yl]-1,3-dihydro-2H-imidazo[4,5-b]pyridin-2-one]	96%	100%	
CCn1c(=O)n(-c2ccc(Oc3nc4ccccc4[nH]3)cc2)c2nccc(C)c21 [Example 64, 3-[4-(1H-benzimidazol-2-yloxy)phenyl]-1-ethyl-7-methyl-1,3-dihydro-2H-imidazo[4,5-b]pyridin-2-one dihydrochloride]	100%	101%	
CCn1c(=O)n(-c2ccc3c(c2)CCN3c2nc3cccnc3[nH]2)c2ncccc21 [Example 71, 1-ethyl-3-[1-(3H-imidazo[4,5-b]pyridin-2-yl)-2,3-dihydro-1H-indol-5-yl]-1,3-dihydro-2H-imidazo[4,5-b]pyridin-2-one]	99%	97%	
CC(C)n1c(=O)n(-c2ccc3c(c2)CCN3c2nc3cccnc3[nH]2)c2ncccc21 [Example 72, 3-[1-(3H-imidazo[4,5-b]pyridin-2-yl)-2,3-dihydro-1H-indol-5-yl]-1-(1-methylethyl)-1,3-dihydro-2H-imidazo[4,5-b]pyridin-2-one]	104%	110%	
CCn1c(=O)n(-c2ccc(Oc3nc4cccnc4[nH]3)cc2)c2ncccc21 [Example 75, 1-ethyl-3-[4-(3H-imidazo[4,5-b]pyridin-2-yloxy)phenyl]-1,3-dihydro-2H-imidazo[4,5-b]pyridin-2-one]	98%	101%	
CCn1c(=O)n(-c2ccc(Oc3nc4ncccc4n3C)cc2)c2ncccc21 [Example 85, 1-ethyl-3-{4-[(1-methyl-1H-imidazo[4,5-b]pyridin-2-yl)oxy]phenyl}-1,3-dihydro-2H-imidazo[4,5-b]pyridin-2-one]	95%	99%	
CCn1c(=O)n(-c2ccc(Oc3nc4cccnc4n3C)cc2)c2ncccc21 [Example 86, 1-ethyl-3-{4-[(3-methyl-3H-imidazo[4,5-b]pyridin-2-yl)oxy]phenyl}-1,3-dihydro-2H-imidazo[4,5-b]pyridin-2-one]	97%	98%	
CCCn1c(=O)n(-c2ccc(Oc3nc4cccnc4n3C)cc2)c2ncccc21 [Example 97, 3-{4-[(3-methyl-3H-imidazo[4,5-b]pyridin-2-yl)oxy]phenyl}-1-propyl-1,3-dihydro-2H-imidazo[4,5-b]pyridin-2-one]	97%	98%	
CC(C)n1c(=O)n(-c2ccc(Oc3nc4cccnc4n3C)cc2)c2ncccc21 [Example 98, 1-(1-methylethyl)-3-{4-[(3-methyl-3H-imidazo[4,5-b]pyridin-2-yl)oxy]phenyl}-1,3-dihydro-2H-imidazo[4,5-b]pyridin-2-one]	99%	101%	
Cn1c(Oc2ccc(-n3c(=O)n(C4CC4)c4cccnc43)cc2)nc2cccnc21 [Example 99, 1-cyclopropyl-3-{4-[(3-methyl-3H-imidazo[4,5-b]pyridin-2-yl)oxy]phenyl}-1,3-dihydro-2H-imidazo[4,5-b]pyridin-2-one]	100%	105%	
Cn1c(Oc2ccc(-n3c(=O)n(C(F)F)c4cccnc43)cc2)nc2ccccc21 [Example 100, 1-(difluoromethyl)-3-{4-[(1-methyl-1H-benzimidazol-2-yl)oxy]phenyl}-1,3-dihydro-2H-imidazo[4,5-b]pyridin-2-one]	99%	100%	
Cn1c(Oc2ccc(-n3c(=O)n(C(F)F)c4cccnc43)cc2)nc2cccnc21 [Example 101]	101%	99%	
